Measured values from patent publication US20120165331A1, “Di/tri-aza-spiro-C9-C11alkanes” (priority 2010, published 2012).

How the values were obtained:
human orexin 1 receptor [1] = target: T1, human orexin 1 receptor (Homo sapiens, UniProt O43613); test: Radioligand binding assay ([3H]-SB649868 competition), human orexin 1 receptor; settings: radioligand [3H]-SB649868; read-out: Binding hOx1R Kd
T1 construct: expressed in transfected cells
T1 sequence (O43613 1-425): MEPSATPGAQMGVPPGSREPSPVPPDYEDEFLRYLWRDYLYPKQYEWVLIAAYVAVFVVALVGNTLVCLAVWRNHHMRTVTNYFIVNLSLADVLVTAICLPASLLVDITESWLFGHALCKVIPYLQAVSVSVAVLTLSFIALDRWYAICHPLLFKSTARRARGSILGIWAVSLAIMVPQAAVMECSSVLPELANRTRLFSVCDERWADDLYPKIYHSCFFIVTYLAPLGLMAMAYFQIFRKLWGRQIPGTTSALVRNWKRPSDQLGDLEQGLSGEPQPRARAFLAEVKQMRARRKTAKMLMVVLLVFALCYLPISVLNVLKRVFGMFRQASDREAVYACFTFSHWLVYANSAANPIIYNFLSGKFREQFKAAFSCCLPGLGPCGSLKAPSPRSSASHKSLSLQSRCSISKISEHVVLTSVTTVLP
Outline: (§1)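 Competition binding against roughly 1 nM [3H]-SB649868, run in triplicate for 1 h at room temperature on CHO or HEK membranes bearing human receptor (10 mM HEPES pH 7.5, 0.5% BSA, 5 mM MgCl2, 1 mM CaCl2, 0.05% tween). Bound radioactivity after vacuum filtration; almorexant 10 μM for non-specific binding; expressed as Kd.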

human orexin 2 receptor [2] = target: T2, human orexin 2 receptor (Homo sapiens, UniProt O43614); test: Calcium accumulation in cells (FLIPR), antagonism of orexin A, human orexin 2 receptor; type: cell-based; settings: calcium accumulation, antagonism of orexin A, Cheng-Prusoff corrected; read-out: FLIPR hOx2R Ki
T2 construct: expressed in transfected cells
T2 sequence (O43614 1-444): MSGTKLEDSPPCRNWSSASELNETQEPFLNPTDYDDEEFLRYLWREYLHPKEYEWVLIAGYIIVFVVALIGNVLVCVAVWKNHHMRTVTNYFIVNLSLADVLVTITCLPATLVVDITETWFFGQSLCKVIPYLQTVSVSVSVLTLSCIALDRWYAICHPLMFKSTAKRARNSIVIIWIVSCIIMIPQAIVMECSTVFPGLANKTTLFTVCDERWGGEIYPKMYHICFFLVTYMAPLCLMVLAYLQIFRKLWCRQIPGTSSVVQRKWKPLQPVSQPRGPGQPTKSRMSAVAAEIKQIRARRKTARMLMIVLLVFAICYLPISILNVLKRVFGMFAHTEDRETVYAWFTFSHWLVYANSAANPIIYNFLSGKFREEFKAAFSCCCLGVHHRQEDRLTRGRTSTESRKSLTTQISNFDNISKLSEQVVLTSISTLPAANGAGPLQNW

human orexin 2 receptor [3] = target: T2, human orexin 2 receptor; test: Radioligand binding assay ([3H]-SB649868 competition), human orexin 2 receptor; settings: radioligand [3H]-SB649868; read-out: Binding hOx2R Kd
Outline: as §1

human orexin 1 receptor [4] = target: T1, human orexin 1 receptor; test: Calcium accumulation in cells (FLIPR), antagonism of orexin A, human orexin 1 receptor; type: cell-based; settings: for Ki: calcium accumulation, antagonism of orexin A, Cheng-Prusoff corrected, read-out: FLIPR hOx1R Ki

| SMILES | Kd (human orexin 1 receptor [1]) [nM] | Ki (human orexin 2 receptor [2]) [nM] | Kd (human orexin 2 receptor [3]) [nM] | Ki (human orexin 1 receptor [4]) [nM] | inhibition at 10 µM (human orexin 1 receptor [4]; measured at a concentration of 10 μM of compound, read-out: FLIPR hOx1R % inhibition) [%] |
| --- | --- | --- | --- | --- | --- |
| COCCOc1cccc(-c2nn(C)nc2CN2CCNC3(CCN(c4nc(C)cc(C)n4)CC3)C2=O)c1 [Example 1.78, 9-(4,6-dimethyl-pyrimidin-2-yl)-4-((5-(3-(2-methoxyethoxy)phenyl)-2-methyl-2H-1,2,3-triazol-4-yl)methyl)-1,4,9-triazaspiro[5.5] undecan-5-one] | 709 | 9 | 28 | 1870 | – |
| Cc1cc(C)nc(N2CCC3(CC2)NCCN(Cc2nn(C)nc2-c2cccc(OC(C)C)c2)C3=O)n1 [Example 1.79, 9-(4,6-dimethyl-pyrimidin-2-yl)-4-((5-(3-isopropoxy-phenyl)-2-methyl-2H-1,2,3-triazol-4-yl)methyl)-1,4,9-triazaspiro[5.5] undecan-5-one] | 535 | 3.7 | 22 | 166 | – |
| Cc1cc(C)nc(N2CCC3(CC2)NCCN(Cc2nn(C)nc2-c2ccc4c(c2)OCCO4)C3=O)n1 [Example 1.80, 4-((5-(2,3-dihydro-benzo[b][1,4]dioxin-6-yl)-2-methyl-2H-1,2,3-triazol-4-yl)methyl)-9-(4,6-dimethylpyrimidin-2-yl)-1,4,9-triazaspiro[5.5] undecan-5-one] | 860 | 4.3 | 27 | 501 | – |
| Cc1cc(C)nc(N2CCC3(CC2)OCCN(Cc2c[nH]c4ccccc24)C3=O)n1 [Example 2.1, 4-((1H-indol-3-yl)methyl)-9-(4,6-dimethylpyrimidin-2-yl)-1-oxa-4,9-diazaspiro[5.5]undecan-5-one] | 1320 | 29 | 31 | 1700 | – |
| Cc1cc(C)nc(N2CCC3(CC2)OCCN(Cc2n[nH]c4ccccc24)C3=O)n1 [Example 2.2, 9-(4,6-Dimethyl-pyrimidin-2-yl)-4-(1H-indazol-3-ylmethyl)-1-oxa-4,9-diaza-spiro[5.5]undecan-5-one] | 1840 | 55 | 71 | 1800 | – |
| Cc1cc(C)nc(N2CCC3(CC2)OCCN(Cc2c[nH]c4ccc(F)cc24)C3=O)n1 [Example 2.6, 9-(4,6-Dimethylpyrimidin-2-yl)-4-((5-fluoro-1H-indol-3-yl)methyl)-1-oxa-4,9-diazaspiro[5.5]undecan-5-one] | 1060 | 13 | 26 | 1060 | – |
| COc1ccc2[nH]cc(CN3CCOC4(CCN(c5nc(C)cc(C)n5)CC4)C3=O)c2c1 [Example 2.7, 9-(4,6-Dimethylpyrimidin-2-yl)-4-((5-methoxy-1H-indol-3-yl)methyl)-1-oxa-4,9-diazaspiro[5.5]undecan-5-one] | 213 | 1 | 6 | 258 | – |
| Cc1ccnc(N2CCC3(CC2)OCCN(Cc2c[nH]c4ccccc24)C3=O)n1 [Example 2.8, 4-((1H-Indol-3-yl)methyl)-9-(4-methylpyrimidin-2-yl)-1-oxa-4,9-diazaspiro[5.5]undecan-5-one] | 5610 | 105 | 78 | 2460 | – |
| Cc1cc(C)nc(N2CCC3(CC2)OCCN(Cc2ccccc2-c2nc(C)no2)C3=O)n1 [Example 2.10, 9-(4,6-Dimethylpyrimidin-2-yl)-4-(2-(3-methyl-1,2,4-oxadiazol-5-yl)benzyl)-1-oxa-4,9-diazaspiro[5.5]undecan-5-one] | 4610 | 72 | 144 | – | 35 |
| Cc1cc(C)nc(N2CCC3(CC2)OCCN(Cc2nn(C)cc2-c2ccccc2)C3=O)n1 [Example 2.11, 9-(4,6-Dimethylpyrimidin-2-yl)-4-((1-methyl-4-phenyl-1H-pyrazol-3-yl)methyl)-1-oxa-4,9-diazaspiro[5.5]undecan-5-one] | 3180 | 75 | 229 | 2320 | – |
| Cc1cc(C)nc(N2CCC3(CC2)OCCN(Cc2n[nH]cc2-c2ccccc2)C3=O)n1 [Example 2.13, 9-(4,6-Dimethylpyrimidin-2-yl)-4-((4-phenyl-1H-pyrazol-3-yl)methyl)-1-oxa-4,9-diazaspiro[5.5]undecan-5-one] | 1560 | 38 | 143 | 1500 | – |
| COc1cccc(-c2n[nH]nc2CN2CCOC3(CCN(c4nc(C)cc(C)n4)CC3)C2=O)c1 [Example 2.17, 9-(4,6-Dimethylpyrimidin-2-yl)-4-((5-(3-methoxyphenyl)-2H-1,2,3-triazol-4-yl)methyl)-1-oxa-4,9-diazaspiro[5.5]undecan-5-one] | 363 | 1 | 16 | 220 | – |
| COc1cc(C)nc(N2CCC3(CC2)OCCN(Cc2c[nH]c4ccccc24)C3=O)n1 [Example 2.18, 4-((1H-Indol-3-yl)methyl)-9-(4-methoxy-6-methylpyrimidin-2-yl)-1-oxa-4,9-diazaspiro[5.5]undecan-5-one] | 625 | 4 | 23 | 383 | – |
| COc1cc(C)nc(N2CCC3(CC2)OCCN(Cc2c[nH]c4ncccc24)C3=O)n1 [Example 2.19, 4-((1H-Pyrrolo[2,3-b]pyridin-3-yl)methyl)-9-(4-methoxy-6-methylpyrimidin-2-yl)-1-oxa-4,9-diazaspiro[5.5]undecan-5-one] | 3520 | 35 | 184 | 1490 | – |
| COc1cccc(-c2ocnc2CN2CCOC3(CCN(c4nc(C)cc(OC)n4)CC3)C2=O)c1 [Example 2.20, 9-(4-Methoxy-6-methylpyrimidin-2-yl)-4-((5-(3-methoxyphenyl)oxazol-4-yl)methyl)-1-oxa-4,9-diazaspiro[5.5]undecan-5-one] | 57 | 2 | 7 | 43 | – |
| CCc1cc(C)nc(N2CCC3(CC2)OCCN(Cc2c[nH]c4ccccc24)C3=O)n1 [Example 2.23, 4-((1H-indol-3-yl)methyl)-9-(4-ethyl-6-methylpyrimidin-2-yl)-1-oxa-4,9-diazaspiro[5.5]undecan-5-one] | 1570 | 37 | 68 | 582 | – |
| O=C1N(Cc2c[nH]c3ccccc23)CCC12CCN(c1cnc3ccccc3n1)CC2 [Example 3.2, 2-((1H-Indol-3-yl)methyl)-8-(quinoxalin-2-yl)-2,8-diazaspiro[4.5]decan-1-one] | 920 | 41 | 121 | 1060 | – |
| COc1cc(C)nc(N2CCC3(CCN(Cc4ccccc4-c4nc(C)no4)C3=O)CC2)n1 [Example 3.20, 8-(4-Methoxy-6-methyl-pyrimidin-2-yl)-2-[2-(3-methyl-[1,2,4]oxadiazol-5-yl)-benzyl]-2,8-diaza-spiro[4.5]decan-1-one] | 7670 | 43 | 328 | 1640 | – |
| COc1cc(C)nc(N2CCC3(CCN(Cc4nn(C)nc4-c4ccccc4)C3=O)C2)n1 (stereo not drawn) [Example 5.43, 7-(4-methoxy-6-methylpyrimidin-2-yl)-2-((2-methyl-5-phenyl-2H-1,2,3-triazol-4-yl)methyl)-2,7-diazaspiro[4.4]nonan-1-one] | 339 | 29 | 118 | 421 | – |
| COc1cc(C)nc(N2CCC3(CCN(Cc4nn(C)nc4-c4cccc(C)c4)C3=O)C2)n1 (stereo not drawn) [Example 5.44, 7-(4-methoxy-6-methylpyrimidin-2-yl)-2-((2-methyl-5-(m-tolyl)-2H-1,2,3-triazol-4-yl)methyl)-2,7-diazaspiro[4.4]nonan-1-one] | 106 | 3.4 | 20 | 68 | – |
| COc1cccc(-c2nn(C)nc2CN2CCC3(CCN(c4nc(C)cc(OC)n4)C3)C2=O)c1 (stereo not drawn) [Example 5.45, 7-(4-methoxy-6-methylpyrimidin-2-yl)-2-((5-(3-methoxyphenyl)-2-methyl-2H-1,2,3-triazol-4-yl)methyl)-2,7-diazaspiro[4.4]nonan-1-one] | 97 | 2.8 | 21 | 29 | – |
